Consider 27 compounds from PubChem BioAssay AID330 (DTP/NCI, 2004).

The test system of this assay is P388 leukemia ip, CD2F1 mice, survival T/C. Nature of the assay: NCI In Vivo Anticancer Drug Screen. Data for tumor model P388 Leukemia (intraperitoneal) in CD2F1 (CDF1) mice. To be noted: endpoint: median survival time, higher = longer survival. An outline of the steps:
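Mice carrying the transplanted tumor received test compound or vehicle. Survival was recorded in each group, and the value is the treated-group measurement divided by that of the vehicle-treated control group.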

[1] abbreviates: dose: 12.5 mg/kg/injection, schedule: Q01DX009 (ip), vehicle: saline with Tween-80.
The mark [2] stands for this setting: dose: 25.0 mg/kg/injection, schedule: Q01DX009 (ip), vehicle: saline with Tween-80.
The mark [3] stands for this setting: dose: 50.0 mg/kg/injection, schedule: Q01DX009 (ip), vehicle: saline with Tween-80.
The mark [4] stands for this setting: dose: 100.0 mg/kg/injection, schedule: Q04DX003 (ip), vehicle: saline with Tween-80.
The mark [5] stands for this setting: dose: 200.0 mg/kg/injection, schedule: Q04DX003 (ip), vehicle: saline with Tween-80.
[6] abbreviates: dose: 100.0 mg/kg/injection, schedule: Q04DX003 (ip), vehicle: saline.
Setting [7] is: dose: 200.0 mg/kg/injection, schedule: Q04DX003 (ip), vehicle: saline.
Setting [8] is: dose: 400.0 mg/kg/injection, schedule: Q04DX003 (ip), vehicle: saline.
Where [9] appears, read: dose: 50.0 mg/kg/injection, schedule: Q01DX005 (ip), vehicle: saline with Tween-80.
The mark [10] stands for this setting: dose: 100.0 mg/kg/injection, schedule: Q01DX005 (ip), vehicle: saline with Tween-80.
Setting [11] is: dose: 200.0 mg/kg/injection, schedule: Q01DX005 (ip), vehicle: saline with Tween-80.
The mark [12] stands for this setting: dose: 25.0 mg/kg/injection, schedule: Q01DX009 (ip), vehicle: saline.
The mark [13] stands for this setting: dose: 50.0 mg/kg/injection, schedule: Q01DX009 (ip), vehicle: saline.
[14] abbreviates: dose: 100.0 mg/kg/injection, schedule: Q01DX009 (ip), vehicle: saline.
Where [15] appears, read: dose: 60.0 mg/kg/injection, schedule: Q01DX005 (ip), vehicle: saline with Tween-80.
Where [16] appears, read: dose: 120.0 mg/kg/injection, schedule: Q01DX005 (ip), vehicle: saline with Tween-80.
Where [17] appears, read: dose: 240.0 mg/kg/injection, schedule: Q01DX005 (ip), vehicle: saline with Tween-80.
Setting [18] is: dose: 100.0 mg/kg/injection, schedule: Q01DX009 (ip), vehicle: saline with Tween-80.
The mark [19] stands for this setting: dose: 200.0 mg/kg/injection, schedule: Q01DX009 (ip), vehicle: saline with Tween-80.

“And” between values parts separate entries of the source, which are not always exact repeats. Identical values can stand only once. Toxic doses and inconclusive results are not listed.

On to `O=[n+]1c2c(n([O-])c3cc(Cl)c(Cl)cc31)CCCC2`, for which the T/C by setting is: under setting [1], 87 % of control; under setting [2], 89 % of control; under setting [3], 98 % of control and 86 % of control.

For `COc1cccc(/C=C/C(=O)c2ccc(Cl)cc2)c1OC`, the T/C reads like this: under setting [4], 100 % of control; under setting [5], 100 % of control; (dose: 400.0 mg/kg/injection, schedule: Q04DX003 (ip), vehicle: saline with Tween-80) 90 % of control.

For `CSC(=S)c1ccc(NS(=O)(=O)c2ccccc2)cc1`, the T/C reads like this: under setting [6], 100 % of control; under setting [7], 106 % of control; under setting [8], 105 % of control.

As to `CCOC(=O)c1cncc(Br)c1`, the T/C under setting [9] is 113 % of control, the T/C under setting [10] is 103 % of control and the T/C under setting [11] is 113 % of control.

For the compound `O=c1[nH]c(=O)n(C2OC(CO)C(O)C2O)cc1CC(F)(F)C(F)(F)F` (stereo unspecified), the T/C is, setting by setting: (dose: 50.0 mg/kg/injection, schedule: Q01DX001 (ip), vehicle: saline with Tween-80) 107 % of control; (dose: 100.0 mg/kg/injection, schedule: Q01DX001 (ip), vehicle: saline with Tween-80) 106 % of control; (dose: 200.0 mg/kg/injection, schedule: Q01DX001 (ip), vehicle: saline with Tween-80) 100 % of control; (dose: 400.0 mg/kg/injection, schedule: Q01DX001 (ip), vehicle: saline with Tween-80) 101 % of control.

Turning to `CCCOC1(C)CC(c2cc(OC)c(OC)c(OC)c2)c2cc3c(cc2O1)OCO3` (stereo unspecified), the T/C was 93 % of control (dose: 60.0 mg/kg/injection, schedule: Q01DX005 (ip), vehicle: Klucel (hydroxypropylcellulose) (HPC)); 91 % of control (dose: 120.0 mg/kg/injection, schedule: Q01DX005 (ip), vehicle: Klucel (hydroxypropylcellulose) (HPC)); 91 % of control (dose: 240.0 mg/kg/injection, schedule: Q01DX005 (ip), vehicle: Klucel (hydroxypropylcellulose) (HPC)).

Turning to `Brc1cccc(C(Nc2nncs2)Nc2nncs2)c1`, the T/C by setting is: (dose: 50.0 mg/kg/injection, schedule: Q04DX002 (ip), vehicle: saline with Tween-80) 91 % of control; (dose: 100.0 mg/kg/injection, schedule: Q04DX002 (ip), vehicle: saline with Tween-80) 92 % of control and 95 % of control; (dose: 200.0 mg/kg/injection, schedule: Q04DX002 (ip), vehicle: saline with Tween-80) 100 % of control and 111 % of control; (dose: 400.0 mg/kg/injection, schedule: Q04DX002 (ip), vehicle: saline with Tween-80) 124 % of control.

With `O=C(O)C(F)(F)F.O=C(O)C(F)(F)F.O=C(O)C(F)(F)F.O=C(O)C(F)(F)F.[Rh].[Rh]`, the T/C is 86 % of control under setting [12]; 110 % of control under setting [13]; 104 % of control (dose: 50.0 mg/kg/injection, schedule: Q01DX009 (ip), vehicle: suspension in saline); 122 % of control under setting [14]; 123 % of control (dose: 100.0 mg/kg/injection, schedule: Q01DX009 (ip), vehicle: suspension in saline).

Take `COc1ccc(NC(=O)CCC(=O)CC(=O)c2ccc(C)cc2)cc1`: the T/C is 105 % of control under setting [15], 106 % of control under setting [16] and 101 % of control under setting [17].

Consider `COc1ccc(/C(C#N)=C/c2ccncc2)cc1OC`, for which the T/C is, setting by setting: (dose: 12.5 mg/kg/injection, schedule: Q01DX009 (ip), vehicle: saline) 102 % of control; under setting [12], 97 % of control; under setting [13], 101 % of control; under setting [14], 101 % of control.

As to `COc1cc(N(CCCl)CCCl)ccc1C=Nc1ccccc1C(=O)O`, the T/C is, setting by setting: (dose: 12.37 mg/kg/injection, schedule: Q04DX003 (ip), vehicle: saline with Tween-80) 195 % of control; (dose: 18.75 mg/kg/injection, schedule: Q04DX003 (ip), vehicle: saline with Tween-80) 181 % of control and 268 % of control.

Take `CCCCOCN(COCCCC)c1ccc(C)cc1`: the T/C under setting [1] was 88 % of control, the T/C under setting [2] is 104 % of control and the T/C under setting [3] is 112 % of control.

On to `O=C1CSc2nc3ccc(Br)cc3c(=O)n21`, for which the T/C by setting is: under setting [9], 100 % of control; under setting [10], 95 % of control; under setting [11], 111 % of control.

In the case of `C[N+](C)(N)Cc1nc(-c2ccc(Cl)cc2)no1`, the T/C was 98 % of control under setting [13] and 93 % of control under setting [14].

As for `CCN(CC)CCCNC(c1ccc(OC)c(OC)c1)C(Cl)(Cl)Cl` (stereo unspecified), the T/C (dose: 60.0 mg/kg/injection, schedule: Q01DX005 (ip), vehicle: saline) was 94 % of control and the T/C (dose: 120.0 mg/kg/injection, schedule: Q01DX005 (ip), vehicle: saline) is 101 % of control.

On to `Nc1ncnc2nc(-c3ccccc3)[nH]c12`, for which the T/C was 102 % of control under setting [15], 100 % of control under setting [16] and 105 % of control under setting [17].

As for `ClCC1CCN(Cc2ccccc2)CC1`, the T/C by setting is: under setting [4], 97 % of control; under setting [5], 100 % of control.

For `CC1=C/C(=N\N2CCOCC2)C(C(O)(C(F)(F)F)C(F)(F)F)C(C)(C)C1` (stereo unspecified), the T/C is, setting by setting: (dose: 50.0 mg/kg/injection, schedule: Q01DX009 (ip), vehicle: Klucel (hydroxypropylcellulose) (HPC)) 96 % of control; (dose: 100.0 mg/kg/injection, schedule: Q01DX009 (ip), vehicle: Klucel (hydroxypropylcellulose) (HPC)) 102 % of control; (dose: 200.0 mg/kg/injection, schedule: Q01DX009 (ip), vehicle: Klucel (hydroxypropylcellulose) (HPC)) 105 % of control.

`CCCCOCC(C)O` (stereo unspecified): the T/C by setting is: under setting [6], 109 % of control; under setting [7], 100 % of control; under setting [8], 90 % of control.

For `CCCCCCN(CCCCCC)CC(O)c1cc(-c2ccccc2)nc2cc(Cl)ccc12` (stereo unspecified), the T/C is 115 % of control under setting [9], 103 % of control under setting [10] and 113 % of control under setting [11].

With `Cn1c(=O)[nH]c(=O)c2nc(-c3ccc(Cl)c(Cl)c3)cnc21`, the T/C under setting [3] was 104 % of control, the T/C under setting [18] was 101 % of control and the T/C under setting [19] is 99 % of control.

On to `CN(C)c1ccc(/C=C/c2ccnc3ccccc23)cc1Cl`, for which the T/C was 105 % of control (dose: 12.5 mg/kg/injection, schedule: Q04DX003 (ip), vehicle: saline with Tween-80); 96 % of control (dose: 25.0 mg/kg/injection, schedule: Q04DX003 (ip), vehicle: saline with Tween-80); 95 % of control (dose: 50.0 mg/kg/injection, schedule: Q04DX003 (ip), vehicle: saline with Tween-80).

Regarding `O=C(O)Cc1ccc2c(c1O)C(=O)c1ccccc1C2=O`, the T/C is, setting by setting: (dose: 12.5 mg/kg/injection, schedule: Q01DX005 (ip), vehicle: saline) 98 % of control; (dose: 25.0 mg/kg/injection, schedule: Q01DX005 (ip), vehicle: saline) 104 % of control; under setting [9], 112 % of control; (dose: 50.0 mg/kg/injection, schedule: Q01DX005 (ip), vehicle: saline) 107 % of control.

As to `O=C(NCCc1ccc(Cl)cc1)c1ccc(Cl)cc1`, the T/C runs as follows: under setting [15], 96 % of control; under setting [16], 97 % of control; under setting [17], 91 % of control.

Take `Cc1ccc(-c2nc3ccccc3c(=O)n2C(C)C)cc1`: the T/C under setting [3] is 100 % of control, the T/C under setting [18] is 98 % of control and the T/C under setting [19] was 87 % of control.

Turning to `N=C(N)S(=O)O`, the T/C was 99 % of control under setting [2]; 100 % of control under setting [3]; 96 % of control under setting [13]; 98 % of control under setting [18]; 101 % of control under setting [19]; 95 % of control (dose: 200.0 mg/kg/injection, schedule: Q01DX009 (ip), vehicle: saline).

As for `O=C1CCCC2=C1C(c1ccccc1)/C(=N/O)O2` (stereo unspecified), the T/C by setting is: (dose: 50.0 mg/kg/injection, schedule: Q04DX003 (ip), vehicle: Klucel (hydroxypropylcellulose) (HPC)) 97 % of control; (dose: 100.0 mg/kg/injection, schedule: Q04DX003 (ip), vehicle: Klucel (hydroxypropylcellulose) (HPC)) 101 % of control; (dose: 200.0 mg/kg/injection, schedule: Q04DX003 (ip), vehicle: Klucel (hydroxypropylcellulose) (HPC)) 100 % of control and 90 % of control.
